Test results reported in patent US6645982B2, “Crystal forms of 6-[(4-chloro-phenyl)-hydroxy-(3-methyl-3H-imidazol-4-yl)-methyl]-4-(3-ethynyl-phenyl)-1-methyl-1H-quinolin-2-one, 2,3-dihydroxybutanedioate salts and method of production” (Pfizer Inc, priority 2000, dated 2003).

Assay: solubility in gastric fluids
Format: physicochemical
Settings: compared to other salts of the compound of formula I, i.e., HCl

C#Cc1cccc(-c2cc(=O)n(C)c3ccc(C(O)(c4ccc(Cl)cc4)c4cncn4C)cc23)c1.O=C(O)C(O)C(O)C(=O)O (stereo not shown) [6-[(4-chloro-phenyl)-hydroxy-(3-methyl-3H-imidazol-4-yl)-methyl]-4-(3-ethynyl-phenyl)-1-methyl-1H-quinolin-2-one, 2,3-dihydroxybutanedioate (1:1)]
solubility in gastric fluids: improved solubility
